In patent US4544659A, “Schistosomicidal acridanone hydrazones” (Hoffman-La Roche Inc., priority 1982, dated 1985):

Tests used:
[1] = test system: Schistosoma mansoni; assay: Schistosomicidal activity in infected mice (reduction in number of worms, single peroral treatment); assay type: in vivo, Schistosoma mansoni (Liberia strain) in albino mice; conditions: po, read-out: VD50 (vermicidal dosage which brings about a 50 percent reduction in the number of worms)
Protocol: Albino mice weighing 15-18 g are infected subcutaneously with 60±5 cercaria of a Liberia strain of Schistosoma mansoni. Forty-six (46) days after infection, the animals are treated once perorally with the test substance. There are 5-10 animals used per substance and dosage. There are 10 untreated animals used as controls. The autopsies are carried out after 60 days. Whereupon worm pairs and individual worms in the mesenteric veins, portal vein and liver are dissected out and counted.
For the evaluation, the percentage reduction in parasites in treated animals in comparison to untreated control animals is calculated. The VD50 is determined according to the Probit method. The VD50 is that vermicidal dosage which brings about a 50 percent reduction in the number of worms.
(§1) The Table which follows contains the results obtained with representative compounds of the invention. In the Table there are given VD50 in mg/kg p.o. and the LD50 in mg/kg in the case of single oral administration to mice.

[2] = Acute toxicity, single oral administration to mice; conditions: mouse, in vivo, p.o.
Description: as §1

| Compound | ED50 [1] [mg/kg] | LD50 [2] [mg/kg] |
| --- | --- | --- |
| c1ccc2c(=NN=C3NCCS3)c3ccccc3[nH]c2c1 [9-acridanone (2-thiazolidinylidene)hydrazone] | 26 | 1250 to 2500 |
| Cl.Cn1c2ccccc2c(=NNc2nccs2)c2ccccc21 [10-methyl-9-acridanone (2-thiazolyl)hydrazone hydrochloride] | 9 | > 5000 |
